PubChem BioAssay (NCI)
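Test compounds were applied to cells in 96-well plates for 48 hours at 5 doses. TGI marks complete inhibition of growth.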

Legend:
Assay in all cases: NCI tumour cell line growth inhibition, 48 h
[1] = tested on: 786-0 renal
[2] = tested on: A498 renal
[3] = tested on: A549 NSCLC
[4] = tested on: ACHN renal
[5] = tested on: BT-549 breast
[6] = tested on: CAKI-1 renal
[7] = tested on: CCRF-CEM leukemia
[8] = tested on: COLO 205 colon
[9] = tested on: DU-145 prostate
[10] = tested on: EKVX NSCLC
[11] = tested on: HCC-2998 colon
[12] = tested on: HCT-116 colon
[13] = tested on: HCT-15 colon
[14] = tested on: HL-60(TB) leukemia
[15] = tested on: HOP-62 NSCLC
[16] = tested on: HOP-92 NSCLC
[17] = tested on: HS 578T breast
[18] = tested on: HT29 colon
[19] = tested on: IGROV1 ovarian
[20] = tested on: K-562 leukemia
[21] = tested on: KM12 colon
[22] = tested on: LOX IMVI melanoma
[23] = tested on: M14 melanoma
[24] = tested on: MALME-3M melanoma
[25] = tested on: MCF7 breast
[26] = tested on: MDA-MB-231 breast
[27] = tested on: MDA-MB-435
[28] = tested on: MDA-N
[29] = tested on: MOLT-4 leukemia
[30] = tested on: NCI-H226 lung
[31] = tested on: NCI-H23 lung
[32] = tested on: NCI-H460 lung
[33] = tested on: NCI/ADR-RES ovarian
[34] = tested on: OVCAR-3 ovarian
[35] = tested on: OVCAR-4 ovarian
[36] = tested on: OVCAR-5 ovarian
[37] = tested on: OVCAR-8 ovarian
[38] = tested on: PC-3 prostate
[39] = tested on: RPMI-8226 leukemia
[40] = tested on: RXF 393 renal
[41] = tested on: SF-268 CNS
[42] = tested on: SF-295 CNS
[43] = tested on: SF-539 CNS
[44] = tested on: SK-MEL-2 melanoma
[45] = tested on: SK-MEL-28 melanoma
[46] = tested on: SK-MEL-5 melanoma
[47] = tested on: SK-OV-3 ovarian
[48] = tested on: SN12C renal
[49] = tested on: SNB-19 CNS
[50] = tested on: SNB-75 CNS
[51] = tested on: SR leukemia
[52] = tested on: SW-620 colon
[53] = tested on: T-47D breast
[54] = tested on: TK-10 renal
[55] = tested on: U251 CNS
[56] = tested on: UACC-257 melanoma
[57] = tested on: UACC-62 melanoma
[58] = tested on: UO-31 renal

With `CC1=NN(c2nc(N)nc(/C(C#N)=C\c3cccc([N+](=O)[O-])c3)n2)C(C)(C)C1` as the compound, how does the TGI [1] read?
Its TGI is 32 µM.

And the TGI [2]?
The TGI was > 37 µM.

What about the TGI [3] of the same compound?
The TGI was > 56.8 µM.

And the TGI [4]?
The TGI was > 51.4 µM.

What about the TGI [5] of the same compound?
The TGI was > 89.8 µM.

And the TGI [6]?
The TGI was > 94.1 µM.

And the TGI [7]?
The TGI was > 66.8 µM.

What about the TGI [8] of the same compound?
The TGI was > 48 µM.

And the TGI [9]?
Its TGI is 50.8 µM.

What about the TGI [10] of the same compound?
The TGI was > 100 µM.

What about the TGI [11] of the same compound?
Its TGI is 22.2 µM.

And the TGI [12]?
Its TGI is > 42.1 µM.

What about the TGI [13] of the same compound?
The TGI was > 47.6 µM.

And the TGI [14]?
The TGI was 4.61 µM.

What about the TGI [15] of the same compound?
Its TGI is 43.8 µM.

What about the TGI [16] of the same compound?
The TGI was > 100 µM.

And the TGI [17]?
The TGI was 78.6 µM.

And the TGI [18]?
The TGI was > 100 µM.

What about the TGI [19] of the same compound?
Its TGI is 34.1 µM.

What about the TGI [20] of the same compound?
Its TGI is > 35.4 µM.

What about the TGI [21] of the same compound?
The TGI was > 48.1 µM.

What about the TGI [22] of the same compound?
Its TGI is 36.3 µM.

What about the TGI [23] of the same compound?
Its TGI is > 48.9 µM.

And the TGI [24]?
The TGI was > 54.9 µM.

What about the TGI [25] of the same compound?
Its TGI is > 23 µM.

And the TGI [26]?
The TGI was 25.1 µM.

And the TGI [27]?
Its TGI is > 26 µM.

What about the TGI [28] of the same compound?
Its TGI is > 33.3 µM.

What about the TGI [29] of the same compound?
The TGI was > 66.5 µM.

What about the TGI [30] of the same compound?
The TGI was > 42.7 µM.

What about the TGI [31] of the same compound?
The TGI was > 72 µM.

And the TGI [32]?
Its TGI is 19.7 µM.

What about the TGI [33] of the same compound?
Its TGI is > 66.7 µM.

And the TGI [34]?
Its TGI is 26.9 µM.

And the TGI [35]?
The TGI was > 60.9 µM.

What about the TGI [36] of the same compound?
Its TGI is > 100 µM.

What about the TGI [37] of the same compound?
Its TGI is 54 µM.

What about the TGI [38] of the same compound?
The TGI was > 53.8 µM.

And the TGI [39]?
Its TGI is 13.1 µM.

What about the TGI [40] of the same compound?
Its TGI is 14.3 µM.

What about the TGI [41] of the same compound?
The TGI was > 65.1 µM.

And the TGI [42]?
The TGI was 52 µM.

What about the TGI [43] of the same compound?
The TGI was 36.5 µM.

What about the TGI [44] of the same compound?
Its TGI is > 29.9 µM.

And the TGI [45]?
The TGI was > 65 µM.

What about the TGI [46] of the same compound?
The TGI was > 42.6 µM.

What about the TGI [47] of the same compound?
The TGI was 57.4 µM.

What about the TGI [48] of the same compound?
Its TGI is > 65.3 µM.

What about the TGI [49] of the same compound?
Its TGI is 88.5 µM.

And the TGI [50]?
Its TGI is 30.9 µM.

And the TGI [51]?
The TGI was > 73.1 µM.

What about the TGI [52] of the same compound?
Its TGI is > 51 µM.

What about the TGI [53] of the same compound?
Its TGI is 64.8 µM.

And the TGI [54]?
Its TGI is 58.8 µM.

What about the TGI [55] of the same compound?
The TGI was 38.4 µM.

What about the TGI [56] of the same compound?
Its TGI is 49.3 µM.

And the TGI [57]?
The TGI was > 40.2 µM.

And the TGI [58]?
Its TGI is 15.7 µM.
